Results on 17 compounds are retold here after patent publication US11472803B2, “7-substituted 1-aryl-naphthyridine-3-carboxylic acid amides and use thereof” (Bayer Aktiengesellschaft, priority 2016, dated 2022).

In this experiment the target is T1, human M2 receptor (Homo sapiens, UniProt P08172).
T1 construct: expressed in transfected cells; host or cells: CHO-DUKX (CHO-DUKX-M2-GIRK)
T1 sequence (P08172 1-466): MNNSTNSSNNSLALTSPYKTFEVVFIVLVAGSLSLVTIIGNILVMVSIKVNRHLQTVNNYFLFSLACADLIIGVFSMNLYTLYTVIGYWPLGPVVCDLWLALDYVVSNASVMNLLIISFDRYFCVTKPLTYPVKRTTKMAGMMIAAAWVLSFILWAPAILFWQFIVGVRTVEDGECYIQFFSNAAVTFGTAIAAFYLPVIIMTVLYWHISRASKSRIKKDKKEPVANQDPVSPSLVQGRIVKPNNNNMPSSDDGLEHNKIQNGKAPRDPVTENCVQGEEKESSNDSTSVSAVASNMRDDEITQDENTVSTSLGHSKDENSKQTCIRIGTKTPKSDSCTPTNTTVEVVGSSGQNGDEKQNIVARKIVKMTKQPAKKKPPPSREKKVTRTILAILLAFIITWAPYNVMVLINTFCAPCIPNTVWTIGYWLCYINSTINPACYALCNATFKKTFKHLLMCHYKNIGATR
Kind of experiment: Functional M2-GIRK1/4 activation test: allosteric potency (EC50) and efficiency at EC20 acetylcholine. The class given is cell-based. To be noted: CHO-DUKX-M2-GIRK cells; for EC50: voltage-sensitive dye, acetylcholine at EC20, in some cases mean of two or more determinations; for Emax / Efficiency: boosting of the acetylcholine effect at EC20 acetylcholine concentration. Put shortly:
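CHO-DUKX cells stably expressing human M2 and GIRK1/4; membrane potential tracked with voltage-sensitive dye at room temperature. Compound added 50 s before acetylcholine at its EC20, then hyperpolarization read 60 s. EC50 (allosteric potency) and efficiency (boost of EC20 ACh effect) from 4-parameter Hill fit.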

Regarding `C[C@H](NC(=O)c1cn(-c2c(F)cc(F)cc2Cl)c2nc(N3C[C@@H](O)[C@H](O)C3)c(F)cc2c1=O)C(F)(F)F` [Example 224, 1-(2-Chloro-4,6-difluorophenyl)-7-[(3R,4R)-3,4-dihydroxypyrrolidin-1-yl]-6-fluoro-4-oxo-N-[(2S)-1,1,1-trifluoropropan-2-yl]-1,4-dihydro-1,8-naphthyridine-3-carboxamide], the EC50 – broadly, the concentration needed to bring the measured effect to its halfway point – was 0.01 µM and the Emax (commonly the size of the effect at its maximum, as opposed to the concentration needed) is 96%. As for `O=C(N[C@@H](C1CC1)C(F)(F)F)c1cn(-c2c(F)cc(F)cc2F)c2nc(N3CC4(COC4)C3)c(F)cc2c1=O` [Example 83, N-[(1S)-1-Cyclopropyl-2,2,2-trifluoroethyl]-6-fluoro-7-(2-oxa-6-azaspiro[3.3]hept-6-yl)-4-oxo-1-(2,4,6-trifluorophenyl)-1,4-dihydro-1,8-naphthyridine-3-carboxamide], the EC50 was found to be 0.044 µM and the Emax was found to be 94%. The matching figures for `CC(NC(=O)c1cn(-c2c(F)cc(F)cc2F)c2nc(N3CC[C@H](O)[C@@H]3CO)c(F)cc2c1=O)C(F)(F)C(F)(F)F` (single isomer, unassigned) [Example 194]: 0.0315 µM and 94%. `CC(NC(=O)c1cn(-c2ncc(F)cc2F)c2nc(N3CC(O)C(O)C3)c(F)cc2c1=O)C(F)(F)C(F)(F)F` (single isomer, unassigned) [Example 46] returned an EC50 of 0.051 µM and an Efficiency of 100%. As to `O=C(N[C@@H](C1CC1)C(F)(F)F)c1cn(-c2c(F)cccc2F)c2nc(N3C[C@@H](O)[C@H](O)C3)c(F)cc2c1=O` [Example 2, N-[(1S)-1-Cyclopropyl-2,2,2-trifluoroethyl]-1-(2,6-difluorophenyl)-7-[(3R,4R)-3,4-dihydroxypyrrolidin-1-yl]-6-fluoro-4-oxo-1,4-dihydro-1,8-naphthyridine-3-carboxamide], the EC50 turned out to be 0.0355 µM and the Emax was determined as 96%.

In the case of `COC[C@H](NC(=O)c1cn(-c2c(F)cc(F)cc2F)c2nc(N3CC[C@H](O)C3)c(F)cc2c1=O)C(C)C` [Example 121, 6-Fluoro-7-[(3S)-3-hydroxypyrrolidin-1-yl]-N-[(2R)-1-methoxy-3-methylbutan-2-yl]-4-oxo-1-(2,4,6-trifluorophenyl)-1,4-dihydro-1,8-naphthyridine-3-carboxamide], the EC50 is 0.125 µM and the Emax is 100%. `CC[C@H](NC(=O)c1cn(-c2c(F)cc(F)cc2F)c2nc(N3C[C@H](O)[C@@H](O)C3)c(F)cc2c1=O)C(F)(F)F` [Example 178, 7-[(3S,4S)-3,4-Dihydroxypyrrolidin-1-yl]-6-fluoro-4-oxo-N-[(2S)-1,1,1-trifluorobutan-2-yl]-1-(2,4,6-trifluorophenyl)-1,4-dihydro-1,8-naphthyridine-3-carboxamide] showed an EC50 of 0.017 µM and an Emax of 99%. The matching figures for `O=C(NCC(F)(F)F)c1cn(-c2c(F)cc(F)cc2F)c2nc(N3C[C@@H](O)[C@H](O)C3)c(F)cc2c1=O` [Example 220, 7-[(3R,4R)-3,4-dihydroxypyrrolidin-1-yl]-6-fluoro-4-oxo-N-(2,2,2-trifluoroethyl)-1-(2,4,6-trifluorophenyl)-1,4-dihydro-1,8-naphthyridine-3-carboxamide]: 0.08 µM and 85%.

`Cc1cc(F)cc(C)c1-n1cc(C(=O)N[C@H](C2CC2)C(F)(F)F)c(=O)c2cc(F)c(N3C[C@@H](O)CC3=O)nc21` [Example 177, N-[(1R)-1-Cyclopropyl-2,2,2-trifluoroethyl]-6-fluoro-1-(4-fluoro-2,6-dimethylphenyl)-7-[(4S)-4-hydroxy-2-oxopyrrolidin-1-yl]-4-oxo-1,4-dihydro-1,8-naphthyridine-3-carboxamide] registered an EC50 of 0.53 µM and an Emax of 77%. `CC(C)(C)OC(=O)N1CCC(NC(=O)c2cn(-c3c(F)cc(F)cc3F)c3nc(N4C[C@@H](O)[C@H](O)C4)c(F)cc3c2=O)C(F)(F)C1` (stereo partly drawn) [Example 85, tert-Butyl 4-[({7-[(3R,4R)-3,4-dihydroxypyrrolidin-1-yl]-6-fluoro-4-oxo-1-(2,4,6-trifluoro-phenyl)-1,4-dihydro-1,8-naphthyridin-3-yl}carbonyl)amino]-3,3-difluoropiperidine-1-carboxylate] registered a half-maximal effective concentration (EC50) of 0.033 µM and an Emax of 100%.

Consider `CCN(CC(C)O)c1nc2c(cc1F)c(=O)c(C(=O)N[C@@H](C1CC1)C(F)(F)F)cn2-c1c(F)cc(F)cc1F` (single isomer, unassigned) [Example 67], for which the midpoint of the response, the EC50, lay at 0.01 µM and the Efficiency came to 95%.

`O=C(N[C@@H](C1CC1)C(F)(F)F)c1cn(-c2c(F)cc(F)cc2F)c2nc(N3CCCC3)c(F)cc2c1=O` [Example 231, N-[(1S)-1-cyclopropyl-2,2,2-trifluoroethyl]-6-fluoro-4-oxo-7-(pyrrolidin-1-yl)-1-(2,4,6-tri-fluorophenyl)-1,4-dihydro-1,8-naphthyridine-3-carboxamide] gave an EC50 of 0.0048 µM and an Emax of 82%. The matching figures for `O=C(NC(C(F)(F)F)C(F)(F)F)c1cn(-c2ncc(F)cc2F)c2nc(N3CCCC[C@@H]3CO)c(F)cc2c1=O` [Example 190, 1-(3,5-Difluoropyridin-2-yl)-6-fluoro-N-(1,1,1,3,3,3-hexafluoropropan-2-yl)-7-[(2R)-2-(hydroxymethyl)piperidin-1-yl]-4-oxo-1,4-dihydro-1,8-naphthyridine-3-carboxamide]: 0.0835 µM and 100%.

`CC(C)(NC(=O)c1cn(-c2c(F)cc(F)cc2Cl)c2nc(N3C[C@@H](O)[C@H](O)C3)c(F)cc2c1=O)C(F)(F)F` (single isomer, unassigned) [Example 50]: the EC50 worked out at 0.0025 µM and the Efficiency is on record as 60%.

In the case of `CC(NC(=O)c1cn(-c2c(F)cc(F)cc2F)c2nc(N3CCC(CO)(CO)CC3)c(F)cc2c1=O)C(F)(F)C(F)(F)F` (single isomer, unassigned) [Example 187, 7-[4,4-bis(hydroxymethyl)piperidin-1-yl]-6-fluoro-4-oxo-N-(3,3,4,4,4-pentafluorobutan-2-yl)-1-(2,4,6-trifluorophenyl)-1,4-dihydro-1,8-naphthyridine-3-carboxamide], the EC50 was determined as 0.0099 µM and the Emax worked out at 90%. In the same order, the values of `CC(NC(=O)c1cn(-c2c(F)cc(F)cc2F)c2nc(N3CC(CO)(CO)C3)c(F)cc2c1=O)C(F)(F)C(F)(F)F` (racemic) [Example 168, 7-[3,3-Bis(hydroxymethyl)azetidin-1-yl]-6-fluoro-4-oxo-N-[3,3,4,4,4-pentafluorobutan-2-yl]-1-(2,4,6-trifluorophenyl)-1,4-dihydro-1,8-naphthyridine-3-carboxamide] are 0.004 µM and 86%. Compound `CC(NC(=O)c1cn(-c2c(F)cc(F)cc2F)c2nc(N3C[C@@H](O)[C@H](O)C3)c(F)cc2c1=O)C(F)(F)C(F)(F)F` (mixture of isomers) [Example 8, 7-[(3R,4R)-3,4-Dihydroxypyrrolidin-1-yl]-6-fluoro-4-oxo-N-[3,3,4,4,4-pentafluorobutan-2-yl]-1-(2,4,6-trifluorophenyl)-1,4-dihydro-1,8-naphthyridine-3-carboxamide] yielded an Emax of 96%.
